In US12384753B2, “17-beta-hydroxysteroid dehydrogenase type 13 inhibitors and methods of use thereof” (Enanta Pharmaceuticals, Inc., priority 2021, dated 2025):

molecular target: Recombinant human HSD17B13 (Homo sapiens (Human), UniProt Q7Z5P4); test: HSD17B13 rapid-fire mass spectrometry assay (RF/MS assay); format: biochemical; settings: inhibition of HSD17B13; LTB4 10 μM, NAD+ 0.5 mM, RT 3 h; IC50 ranges A-E
Source text: HSD17B13 rapid-fire mass spectrometry assay (RF/MS assay). Recombinant human HSD17B13 was expressed and purified from sf9 cells at Charles River Labs (Saffron Walden, UK). Leukotriene B4 (Catalog #71160-24-2) and 12-oxoleukotriene B4 (Catalog #20140) were purchased from Cayman Chemicals (Ann Arbor, Michigan.). NAD+ (Catalog #N8285), BSA (Catalog #A7030), DMSO (Catalog #D2650), and Tween-20 (Catalog #11332465001) were purchased from Sigma (St. Louis, MO). Formic acid (Catalog #28905) was from ThermoFisher Scientific and 384 deep well PP microplates (Catalog #784261) were from Greiner Bio-One. In a typical IC50 assay performed in a 384w PP microplate, test compounds (0-100 μM) were incubated with HSD17B13 (80 nM), LTB4 (10 μM), and NAD^+ (0.5 mM) in 10 μL assay buffer (20 mM Tris (pH 7.5), BSA (0.005%), and Tween-20 (0.01%)) at RT for 3 h. The assays were quenched by adding 20 μL of 0.15% aqueous formic acid and the plates were frozen at −80° C. RF/MS analysis was performed at PureHoney Technologies (Billerica, MA) on a RapidFire RF300 system (Agilent Technologies, Inc.) coupled to an API 4000 triple quadrupole mass spectrometer (Sciex) equipped with Agilent RapidFire cartridge type A (C4). The mobile phase was 0.09% formic acid and 0.01% trifluoracetic acid in water (Buffer A) and 0.09% formic acid and 0.01% trifluoracetic acid in 80% aqueous acetonitrile (Buffer B). The RapidFire method conditions were the following: 250 ms aspirate, 3000 ms load/desalt, 4000 ms elute, and 500 ms re-equilibrate. RF-MS/MS was performed in negative polarity (−4500 V), the source temperature was 650° C., and gas 1 and gas 2 settings for nitrogen were set to 50. The curtain gas and collision gas were also nitrogen and were set to 20 and 12, respectively. Leukotriene B4 (335.3) and 12-oxoLeukotriene B4 (333.3) SRM transitions were optimized with Discovery Quant software and extracted ion counts for these analytes were determined.
Data Analysis. HSD17B13 enzyme activity was measured as percent conversion of extracted ion counts and normalized to high and low controls to determine percent residual activity at various concentrations of test compounds. Data were fitted to normalized activity (variable slope) versus concentration fit in GraphPad Prism 7 to determine IC50. All experiments were run in duplicates.
By using above method, the inhibition of HSD17B13 was evaluated for the compounds of Formula (I). IC50 ranges are as follows: A=IC50<0.100 μM; B=0.100 μM<IC50<0.500 μM; C=0.500 μM<IC50<1 μM; D=1 μM<IC50<100 μM; E=IC50>100 μM

Chain of Recombinant human HSD17B13 (Q7Z5P4 20-300): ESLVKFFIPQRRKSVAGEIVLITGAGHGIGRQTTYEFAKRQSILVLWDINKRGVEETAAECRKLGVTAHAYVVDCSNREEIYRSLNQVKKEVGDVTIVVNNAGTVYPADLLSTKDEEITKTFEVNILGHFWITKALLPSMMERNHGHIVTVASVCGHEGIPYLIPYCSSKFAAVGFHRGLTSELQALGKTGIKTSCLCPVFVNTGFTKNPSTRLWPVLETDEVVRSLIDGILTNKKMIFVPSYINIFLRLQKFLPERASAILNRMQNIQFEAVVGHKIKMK

SMILES	IC50 [nM]
COc1cc(C(=O)O)ccc1NS(=O)(=O)c1csc(-c2cccc(C#N)c2)n1 [Example 129]	1000 to 100000
COc1cc(C(=O)O)ccc1NS(=O)(=O)c1csc(-c2ccc3ccccc3c2)n1 [Example 130]	500 to 1000
CCOC(=O)c1cc2c(c(OC)c1)N(S(=O)(=O)c1csc(-c3ccc(F)cc3)n1)CCC2 [Example 131]	1000 to 100000
COc1cc(C(=O)O)cc2c1N(S(=O)(=O)c1cnc(-c3ccc(F)cc3)s1)CCC2 [Example 132]	1000 to 100000
O=C(O)c1ccc2c(c1)CCCCN2S(=O)(=O)c1cnc(-c2ccc(F)cc2)s1 [Example 133]	1000 to 100000
COc1cc(C(=O)O)ccc1NS(=O)(=O)c1ccc(Oc2ccccc2OC)cc1 [Example 134]	500 to 1000
COc1cc(-c2nnn[nH]2)ccc1NS(=O)(=O)c1cnc(-c2ccc(F)cc2)s1 [Example 135]	1000 to 100000
COc1cc(C(=O)O)ccc1NS(=O)(=O)c1csc2ccccc12 [Example 136]	500 to 1000
COc1cc(C(=O)O)ccc1NS(=O)(=O)c1c[nH]c2ccccc12 [Example 137]	1000 to 100000
COc1cc(C(=O)O)ccc1NS(=O)(=O)c1coc2ccccc12 [Example 138]	1000 to 100000
COc1cc(C(=O)O)ccc1NS(=O)(=O)c1ccc2occc2c1 [Example 139]	1000 to 100000
COc1cccc(-c2nc(S(=O)(=O)Nc3ccc(C(=O)O)cc3OC)cs2)c1 [Example 140]	500 to 1000
COc1cc(C(=O)O)ccc1NS(=O)(=O)c1csc(-c2ccccc2OC)n1 [Example 141]	500 to 1000
COc1cc(C(=O)O)ccc1NS(=O)(=O)c1csc(-c2ccccc2O)n1 [Example 142]	500 to 1000
COc1cc(C(=O)O)ccc1NS(=O)(=O)c1csc(-c2cccnc2)n1 [Example 143]	1000 to 100000
COc1cc(C(=O)O)ccc1NS(=O)(=O)c1ccc(-c2ccccc2)cc1 [Example 144]	100 to 500
COc1cc(C(=O)O)ccc1NS(=O)(=O)c1cccc(-c2ccccc2)c1 [Example 145]	1000 to 100000
COc1cc(C(=O)O)ccc1NS(=O)(=O)c1csc(-c2cccc(O)c2)n1 [Example 146]	100 to 500
COc1cc(C(=O)O)ccc1NS(=O)(=O)c1csc(-c2ccccn2)n1 [Example 147]	1000 to 100000
COc1cc(C(=O)O)ccc1NS(=O)(=O)c1csc(-c2ccc(C#N)cc2)n1 [Example 148]	1000 to 100000
COc1cc(C(=O)O)ccc1NS(=O)(=O)c1ccc(-c2ccccc2)s1 [Example 149]	500 to 1000
COc1cc(C(=O)O)ccc1NS(=O)(=O)c1csc(C#Cc2ccccc2)n1 [Example 150]	100 to 500

SMILES	IC50 [nM]
COc1cc(C(=O)O)ccc1NS(=O)(=O)c1csc(-c2cccc3ccccc23)n1 [Example 151]	500 to 1000
COc1cc(C(=O)O)ccc1NS(=O)(=O)c1csc(-c2c(C)ccc3ccccc23)n1 [Example 152]	100 to 500
COc1cc(C(=O)O)ccc1NS(=O)(=O)c1csc(-c2c(F)ccc3ccccc23)n1 [Example 153]	100 to 500
COc1cc(C(=O)O)ccc1NS(=O)(=O)c1csc(-c2ccc(OC)c3ccccc23)n1 [Example 154]	500 to 1000
COc1cc(C(=O)O)ccc1NS(=O)(=O)c1csc(-c2cccc3ccncc23)n1 [Example 155]	1000 to 100000
COc1cc(C(=O)O)ccc1NS(=O)(=O)c1csc(-c2cccc(C)c2C)n1 [Example 156]	100 to 500
COc1cc(C(=O)O)ccc1NS(=O)(=O)c1csc(-c2cccc3c2CCCC3)n1 [Example 157]	100 to 500
COc1cc(C(=O)O)ccc1NS(=O)(=O)c1cnc(-c2ccccc2)s1 [Example 158]	100 to 500
COc1cc(C(=O)O)ccc1NS(=O)(=O)c1csc(-c2ccccc2C#N)n1 [Example 159]	1000 to 100000
O=C(O)c1ccc(NS(=O)(=O)c2cnc(-c3ccccc3)s2)c(O)c1 [Example 160]	100 to 500
COc1cc(C(=O)O)ccc1NS(=O)(=O)c1cnc(-c2ccc(F)cc2)s1 [Example 161]	100 to 500
COc1cc(C(=O)O)ccc1NS(=O)(=O)c1ccc2ccc(S(=O)(=O)Nc3ccc(C(=O)O)cc3OC)cc2c1 [Example 162]	100 to 500
COc1cc(C(=O)O)ccc1NS(=O)(=O)c1csc(Nc2ccccc2)n1 [Example 163]	1000 to 100000
COc1cc(C(=O)O)ccc1NS(=O)(=O)c1csc(NCc2ccccc2)n1 [Example 164]	1000 to 100000
COc1cc(C(=O)O)ccc1NS(=O)(=O)c1csc(NCCc2ccccc2)n1 [Example 165]	1000 to 100000
COc1cc(C(=O)O)ccc1NS(=O)(=O)c1csc(N2CCOCC2)n1 [Example 166]	1000 to 100000
COc1cc(C(=O)O)ccc1NS(=O)(=O)c1csc(/C=C/c2ccccc2)n1 [Example 167]	100 to 500
COc1cc(C(=O)O)ccc1NS(=O)(=O)c1ccc(C#Cc2ccccc2)s1 [Example 168]	100 to 500
COc1cc(C(=O)O)ccc1NS(=O)(=O)c1cnc(C#Cc2ccccc2)s1 [Example 169]	100 to 500
O=C(O)c1ccc(NS(=O)(=O)c2cccc(S(=O)(=O)Nc3ccc(C(=O)O)cc3O)c2)c(O)c1 [Example 170]	100 to 500
O=C(O)c1ccc(NS(=O)(=O)c2ccc3ccc(S(=O)(=O)Nc4ccc(C(=O)O)cc4O)cc3c2)c(O)c1 [Example 171]	< 100
O=C(O)c1ccc(NS(=O)(=O)c2ccc(Oc3ccc(S(=O)(=O)Nc4ccc(C(=O)O)cc4O)cc3)cc2)c(O)c1 [Example 172]	100 to 500

SMILES	IC50 [nM]
O=C(O)c1ccc(NS(=O)(=O)c2cnc(-c3ccc(F)cc3)s2)c(C(F)F)c1 [Example 173]	1000 to 100000
COc1cc(C(=O)O)ccc1NS(=O)(=O)c1ccc(-c2ccc(F)cc2)s1 [Example 174]	< 100
COc1cc(C(=O)O)ccc1NS(=O)(=O)c1ccc(-c2ccc(C)cc2)s1 [Example 175]	100 to 500
COc1cc(C(=O)O)ccc1NS(=O)(=O)c1csc(C#Cc2ccc(C)cc2)n1 [Example 176, 3-methoxy-4-((2-(p-tolylethynyl)thiazole)-4-sulfonamido)benzoic acid]	100 to 500
COc1ccc(C#Cc2nc(S(=O)(=O)Nc3ccc(C(=O)O)cc3OC)cs2)cc1 [Example 177]	100 to 500
COc1cc(C(=O)O)ccc1NS(=O)(=O)c1ccc(-c2ccc(C(F)(F)F)cc2)s1 [Example 178]	100 to 500
COc1ccc(-c2ccc(S(=O)(=O)Nc3ccc(C(=O)O)cc3OC)s2)cc1 [Example 179]	100 to 500
COc1cc(C(=O)O)ccc1NS(=O)(=O)c1ccc(-c2ccc(O)cc2)s1 [Example 180]	100 to 500
COc1cc(C(=O)O)ccc1NS(=O)(=O)c1csc(CCc2ccccc2)n1 [Example 181]	1000 to 100000
COc1cc(C(=O)O)ccc1NS(=O)(=O)c1csc(C#Cc2ccc(C(F)(F)F)cc2)n1 [Example 182]	< 100
COc1cc(C(=O)O)ccc1NS(=O)(=O)c1csc(C#Cc2ccc(O)cc2)n1 [Example 183]	1000 to 100000
COc1cc(C(=O)O)ccc1NS(=O)(=O)c1csc(C#Cc2ccc(F)cc2)n1 [Example 184]	100 to 500
COc1cc(C(=O)O)ccc1NS(=O)(=O)c1csc(C#Cc2ccc(Cl)cc2)n1 [Example 185]	500 to 1000
COc1cc(C(=O)O)ccc1NS(=O)(=O)c1csc(C#Cc2cccc(C)c2)n1 [Example 186]	< 100
COc1cc(C(=O)O)ccc1NS(=O)(=O)c1csc(C#Cc2ccccc2C)n1 [Example 187]	< 100
COc1cc(C(=O)O)ccc1NS(=O)(=O)c1csc(C#Cc2ccc(C(C)(C)C)cc2)n1 [Example 188]	< 100
COc1cc(C(=O)O)ccc1NS(=O)(=O)c1csc(C#Cc2ccc(C(C)C)cc2)n1 [Example 189]	< 100
COc1cccc(C#Cc2nc(S(=O)(=O)Nc3ccc(C(=O)O)cc3OC)cs2)c1 [Example 190]	< 100
COc1cc(C(=O)O)ccc1NS(=O)(=O)c1ccc(-c2cccc(O)c2)s1 [Example 191]	< 100
COc1cc(C(=O)O)ccc1NS(=O)(=O)c1ccc(-c2ccccc2O)s1 [Example 192]	1000 to 100000
COc1cc(C(=O)O)ccc1NS(=O)(=O)c1ccc(-c2ccccc2OC)s1 [Example 193]	100 to 500
COc1cc(C(=O)O)ccc1NS(=O)(=O)c1ccc(-c2ccccc2C)s1 [Example 194]	100 to 500
